Where “and” joins values, the source holds several entries; their conditions need not be identical. Equal values may be shown once. Marks after values point to notes of the source that are not given here.
Experiments:
Assay type in all cases: in vivo, mouse
[1] = system: Activating transcription factor-3; assay: Anti-ATF-3 immunofluorescence; conditions: for Anti-ATF-3, change: SG-fed vs control
Protocol: Tissue-mounted slides were processed for fluorescence microscopy as follows: Sections were rinsed in coplin jars for 45 minutes at room temperature (RT) in three changes of PBS. Sections were then incubated at RT for 30 minutes in a blocking permeabilization solution made of 5% normal goat serum (NGS), 5% normal rabbit serum (NRS) or 5% BlokHen II (Ayes Labs, Inc., Tigard, Oreg.), 0.05% Triton X-100 and PBS. Subsequently, the blocking solution was tipped off and the slides were rinsed in PBS for 2 minutes. […]

[2] = system: Phosphorylated TDP-43 aggregates; assay: TDP-43 immunofluorescence; design: key to Phosphorylated TDP-43 aggregates: − = not present; + = present; conditions: for Phosphorylated TDP-43 aggregates: SG-fed
Protocol: (§1) Tissue-mounted slides were processed for fluorescence microscopy as follows: Sections were rinsed in coplin jars for 45 minutes at room temperature (RT) in three changes of PBS. Sections were then incubated at RT for 30 minutes in a blocking permeabilization solution made of 5% normal goat serum (NGS), 5% normal rabbit serum (NRS) or 5% BlokHen II (Ayes Labs, Inc., Tigard, Oreg.), 0.05% Triton X-100 and PBS. Subsequently, the blocking solution was tipped off and the slides were rinsed in PBS for 2 minutes. Sections were then incubated overnight in a humidified chamber at 4° C. with a PBS buffered solution that contained 1% NGS or 1% NRS, 1% bovine serum albumin (BSA) and one of the following primary antibodies: (a) rabbit anti-human/mouse ATF-3 (H-90) IgG (polyclonal, 1:500; Santa Cruz Biotechnology, Inc., Santa Cruz, Calif.), (b) anti-activated caspase-3 IgG (monoclonal, 1:250; Chemicon International, Temecula, Calif.) (see FIG. 9), (c) goat antihuman/mouse choline acetyl transferase (ChAT) IgG (polyclonal, 1:100; Chemicon International, Temecula, Calif.) (see FIG. 6), (d) rabbit anti-mouse glial fibrillary acidic protein IgG (polyclonal, 1:250; GeneTex Inc., San Antonio, Tex.) (see FIG. 7), (e) rabbit antihuman/mouse ionized calcium binding adaptor molecule 1 (IBA-1) IgG (polyclonal, 1:500; Wako Pure Chemical Industries, Ltd, Richmond, Va.), (f) mouse anti-human/mouse clone AT8 PHF-1 Tau (monoclonal, 1:200; Pierce Biotechnology Inc., Rockford, Ill.), (g) rabbit anti-human/mouse TAR DNA-binding protein 43 (TDP43) (1:100; ProteinTech Group Inc., Chicago, Ill.) (See FIG. 14), (h) chicken anti-human/mouse β-tubulin 3 (TuJ1 antigen) (polyclonal, 1:100, Ayes Labs, Inc., Tigard, Oreg.), (i) rabbit anti-mouse tyrosine hydroxylase (polyclonal, 1:500, Chemicon International, Temecula, Calif. or polyclonal 1:1000, Affinity BioReagents, Golden, Colo.) (FIG. 10), (j) rabbit anti human/mouse anti-pJunscr73 IgG (polyclonal, 1:200; Chemicon International, Temecula, Calif.), (k) rabbit anti human/mouse anti-HSP-70 IgG (polyclonal, 1:200; Chemicon International, Temecula, Calif.), or (1) rabbit anti human/mouse anti-HSP-25 IgG (polyclonal, 1:100; Chemicon International, Temecula, Calif.). In each experiment, additional slides were incubated with the primary antibody and the secondary antibody omitted or with secondary antibody and primary antibody omitted to test for nonspecific staining. Where appropriate, positive control slides (Alzheimer's disease patient entorhinal cortex, obtained from Drs. Claudia Schwab and Patrick McGeer of the Kinsmen Laboratory, University of British Columbia, Vancouver, BC, Canada) were also processed as above for comparison. […]

Heat shock protein-70 = assay: Anti-Hsp-70 immunofluorescence; conditions: for Anti-Hsp-70 (VHLsc), change: ventral horn lumbar spinal cord; for Anti-Hsp-70 (VHLsc), change / Anti-Hsp-70 (VHTsc): SG-fed vs control; for Anti-Hsp-70 (VHTsc): ventral horn thoracic spinal cord
Protocol: as §1, with “comparison. Following overnight incubation with the primary antibody, slides were rinsed for 45 minutes at RT in three changes of PBS. Immediately after, the slides were incubated in black chambers that excluded light for 1 hour at RT with the secondary antibody solutions containing 5% NGS or 5% NRS and fluorophore conjugated antibodies: AlexaFluor 568 goat anti-rabbit or rabbit anti-goat IgG (monoclonal, 1:250, absorption: 578 nm, emission 603 nm; Molecular Probes, Eugene, Oreg.), AlexaFluor 546 goat antirabbit or rabbit anti-goat IgG (monoclonal; 1:250, absorption 556 nm, emission 573 nm; Molecular Probes, Eugene, Oreg.) or fluorescein isothiocyanate (FITC) goat anti-rabbit IgG (polyclonal, 1:500, absorption: 494 nm, emission: 518 nm; Sigma, Saint Louis, Mo.). The secondary antibody solution was tipped off and slides were rinsed for 15 minutes in three changes of PBS. Tissue sections were cover-slipped with a 4′6 diamidino-2-phenylindole (DAPI) fluorescent mounting media (Vectashield, absorption: 360 nm, emission: 460 nm, Vector Laboratories, Burlington, ON, Canada) in order to label the nuclei and stored at 4° C. in dark slide boxes to retard bleaching of the fluorescent labels.” for “comparison.”

male CD-1 mice = assay: Wire hang test, SG-fed mice
Excerpt: Five-month old male CD-1 mice (30.1-35.7 g, 7.5 cm-8.8 cm) were purchased from Charles River (Wilmington, Mass.). Adult mice were chosen to mimic the mean age of onset of ALS-PDC (Kurland, L. T. (1988a) Trends Neurosci. 11, 51-4; Kurland, L. T., et al. (1994) Amyotrophic lateral sclerosis-parkinsonism-dementia complex on Guam: epidemiologic and etiological perspectives. 109-131). Thirty mice for the SG study were randomly divided into 2 groups (14 control and 16 experimental animals). All animals were housed singly in a virus-free barrier facility in a room maintained at 22° C. under a 12 hour light/dark cycle. The mice were provided ad libitum access to food and water.
The synthetic SG was mixed with finely ground Purina Chow mouse pellets (Mouse Diet™, Purina) to create the experimental pellets with a SG content of 1000 μg per pellet. Dry materials were blended with a sterile silicon spatula. For every 5 g of standard feed, 2.5 mL of doubly-distilled water (dd)H2O was added and the dough was kneaded and round up into pellets. A single sterol glucoside containing pellet was placed in the feeding tray each morning before the addition of regular mouse chow (ad libitum). All experimental pellets were entirely consumed by the mice each day. Control mice were fed standard mouse chow pellets of identical weight with no additives. SG feeding was conducted daily for 15 weeks and mice were behaviorally monitored until sacrifice at 35 weeks (time point 1) or 52 weeks (time point 2).
Wire hang: Neuromuscular strength was tested by the wire hang (or hanging wire) test (Wilson, J., et al. (2003d) Neuromolecular Med. 3, 105-18; Wilson, J. M., et al. (2004c) Neuroimage. 23, 336-43; Wilson, J. M., et al. (2005) Soc Neurosci. Abstr. online; Tabata, R. C., et al. (2008) Neuromolecular Med. 10, 24-39). Both balance and grip strength are required for a mouse to keep its body suspended (Crawley, 2000). […] The latency to fall off the wire (maximum 60 seconds) (Sango et al., 1996) was measured from the moment the wire apparatus was inverted (180°). […]

[3] = SG-fed group over time (35 to 52 wk)

## CC[C@H](/C=C/[C@@H](C)[C@H]1CC[C@H]2[C@@H]3CC=C4C[C@@H](O[C@@H]5O[C@H](CO)[C@@H](O)[C@H](O)[C@H]5O)CC[C@]4(C)[C@H]3CC[C@]12C)C(C)C [SG, Stigmasterol β-D-Glucopyranoside]
[1]; [3]
  Anti-ATF-3 immunoreactive cells over time, change: Anti-ATF-3 immunoreactive cells (SG-fed group over time): −48%***
[1]; Time-point 1 (35 wk)
  Anti-ATF-3, change: Anti-ATF-3: +242% ***
[1]; Time-point 2 (52 wk)
  Anti-ATF-3, change: Anti-ATF-3: +101%**
[2]; Time-point 1 (35 wk)
  Phosphorylated TDP-43 aggregates: No abnormal translocation of TDP-43 was observed and −
[2]; Time-point 2 (52 wk)
  Phosphorylated TDP-43 aggregates: +
[2]; Time-point 2 (52 wk), lumbar spinal cord
  TDP-43 pathology, incidence in SG-fed group: Two of eight and 2/8
[2]; lumbar spinal cord, SG-fed animals
  Pathologic phosphorylated TDP-43-containing aggregates, quantification: increased
Heat shock protein-70; [3]
  Anti-Hsp-70 Lsc over time: Anti-Hsp-70 Lsc (SG-fed group over time) (ns, p = 0.1223)
  Anti-Hsp-70 Tsc over time: Anti-Hsp-70 Tsc (SG-fed group over time) (ns, p = 0.8319)
Heat shock protein-70; Time-point 1 (35 wk)
  Anti-Hsp-70 (VHLsc), change: Anti-Hsp-70: +1036%***
  Anti-Hsp-70 (VHTsc): Anti-Hsp-70: (ns, p = 0.9697)
Heat shock protein-70; Time-point 2 (52 wk)
  Anti-Hsp-70 (VHLsc), change: Anti-Hsp-70: +425%*
  Anti-Hsp-70 (VHTsc): Anti-Hsp-70: (ns, p = 0.2793)
Male CD-1 mice; SG fed mice, control group showed an increase
  Increase in the time between inversion of the apparatus and falling: did not
Male CD-1 mice; SG-fed vs control, Time-point 2 (52 wk)
  Wirehang: Wirehang* (*p < 0.05)
Male CD-1 mice; SG-fed vs control, prior to 35 weeks
  Wirehang performance: decline in performance

— patent US9573972B2, “Nurotoxic sterol glycosides” (priority 2008, dated 2017)
